Experimental data published in patent US6274568A, “Compounds for altering cell surface sialic acids and methods of use therefor” (priority 1999, dated 2001).

Tested on: MAG-Fc chimera
Assay: MAG-Fc binding to precursor-treated NG108-15 cells by flow cytometry
Format: cell-based
Protocol: Flow cytometry was used to test binding of a soluble MAG-Fc chimera to precursor-treated and control NG108-15 cells. A chimeric protein consisting of the entire extracellular domain of MAG fused via a three amino acid bridge (TGK) to the human Fc domain was produced using the "pIgPlus" vector (Novagen, Madison, Wis.). A PCR fragment coding for the extracellular domain of MAG was prepared using MAG in pCDM8 as template (Yang et al., 1996a), the T7 5' primer […] (SEQ ID NO:1) and […] (SEQ ID NO:2) as the 3' primer. The fragment was cut with BamHI and HindIII and directionally cloned into the pIgPlus vector. The resulting construct was sequenced to confirm its identity, transfected into COS cells, and the resulting MAG-Fc chimera was purified from the culture medium using Protein G affinity chromatography.
For MAG binding studies, NG108-15 cells were cultured in the presence of sialic acid precursors for the indicated times, then were released from culture dishes using hypertonic Ca^2+ /Mg^2+ -free phosphate-buffered saline (Yang et al., Proc. Natl. Acad. Sci. USA., 93:814, 1996) and resuspended (at […]) in 25 mM Hepes-buffered Hanks balanced salt solution (Bashor, Methods Enzymol., 58:119, 1979) containing 5 mg/ml bovine serum albumin. MAG-Fc (6 μg) was added to 100 μl of the same buffer containing 6 μg fluorescein isothiocyanate-labeled goat anti-human Fc (Jackson Immunoresearch, West Grove, Pa.) and incubated on ice for 1 h 45 min with frequent mixing. Cell suspension (100 μl containing 50,000 cells) was added to the premixed antibody solution and the mixture incubated on ice for 45 min. The cells were then centrifuged for 4 sec at 16,000×g and washed three times by resuspension in 200 μl of buffer with bovine serum albumin and centrifugation. The resulting cell pellet was resuspended in 100 μl buffer with bovine serum albumin and flow cytometry was performed on an Epics Profile II cytometer (Coulter Corp, Hialeah, Fla.).
NG108-15 cells, a mouse neuroblastoma/rat glioma hybrid, display many qualities of cholinergic neurons, including neurite outgrowth, synthesis, storage and release of acetylcholine, and functional synapse formation with muscle cells in vitro. Neurite outgrowth from NG108-15 cells is inhibited by MAG (McKerracher et al., Neuron, 13:805, 1994), an interaction which is reversed by pretreatment of the cells with neuraminidase (Schnaar et al., Ann. N.Y. Acad. Sci., 845:92, 1998). […] Binding was quantified by flow cytometry. […]

CC(=O)OCC(=O)N[C@@H]1C(OC(C)=O)O[C@H](COC(C)=O)[C@@H](OC(C)=O)[C@@H]1OC(C)=O (some centres unmarked) [ManNGcPA, N-glycolylmannosamine pentaacetate]
inhibition of MAG-Fc binding (0.25 mM or 1 mM, 96 h): ≈ 70% | inhibition of specific binding of MAG-Fc (1 mM, 144 h, compared to control cells): 95%
